From patent US8455475B2 (Gruenenthal GmbH, priority 2009, dated 2013) come the findings set out here.

In the test the target is T1, rat B1R (bradykinin receptor 1) (Rattus norvegicus, UniProt P97583).
T1 construct: expressed in transfected cells; host or cells: CHO K1 cells
T1 sequence (P97583 1-337): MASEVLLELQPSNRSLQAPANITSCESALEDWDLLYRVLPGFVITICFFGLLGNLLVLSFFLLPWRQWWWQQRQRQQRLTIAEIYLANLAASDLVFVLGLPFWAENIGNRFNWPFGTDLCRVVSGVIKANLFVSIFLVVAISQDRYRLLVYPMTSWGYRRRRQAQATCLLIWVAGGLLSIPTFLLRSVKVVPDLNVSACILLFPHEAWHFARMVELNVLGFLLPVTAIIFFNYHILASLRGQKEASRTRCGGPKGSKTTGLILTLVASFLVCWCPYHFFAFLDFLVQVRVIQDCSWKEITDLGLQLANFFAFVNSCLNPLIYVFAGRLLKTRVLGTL
Put plainly: FLIPR Ca2+ assay (Fluo-4) on CHO K1 cells stably transfected with the B1R gene of the rat (rB1R cells): % inhibition at 10 μM / IC50, agonist Des-Arg9-bradykinin. It is filed as cell-based. Conditions: for inhibition at 10 µM: CHO-K1, rat B1R. In outline:
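Stable CHO K1 lines, Fluo-4 dye, probenecid-containing buffer. Cpd 10 μM or dose range, 10–20 min, then EC80 agonist (h: Lys-Des-Arg9-BK; r: Des-Arg9-BK). Readout peak FC; % inhibition vs max; IC50 from n=2–3, N≥2.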

By inhibition is commonly meant the drop in the measured response relative to a control, in per cent. For the compound `CN(C)c1ncc(CN2CCC3(CC2)CCN(C(=O)c2ccc4c(c2)C(NC(=O)c2cc(Cl)ccc2F)CC4)CC3)cn1` (stereo not shown) [IND_CC-676, 5-Chloro-N-[6-[9-[(2-dimethylamino-pyrimidin-5-yl)-methyl]-3,9-diazaspiro-[5.5]undecane-3-carbonyl]-2,3-dihydro-1H-inden-1-yl]-2-fluoro-benzamide], the inhibition at 10 µM came to 74%.

“N,3-Dimethyl-N-[6-(9-pyridin-4-yl-3,9-diazaspiro[5.5]undecane-3-carbonyl)-2,3-dihydro-1H-inden-1-yl]-butyramide [IND_CC-408]”: the “% Inhibition (rat B1R) at 10 μM” value (rat B1R) is 101%.

Turning to `O=C(NC1CCc2ccc(C(=O)N3CCC4(CCN(Cc5ccccn5)CC4)CC3)cc21)c1cc(C(F)(F)F)ccc1Cl` (stereo not shown) [IND_CC-640, 2-Chloro-N-[6-[9-(pyridin-2-yl-methyl)-3,9-diazaspiro[5.5]undecane-3-carbonyl]-2,3-dihydro-1H-inden-1-yl]-5-(trifluoromethyl)-benzamide], the inhibition at 10 µM was 73%.

As for `Cc1cccc(Cl)c1C(=O)NC1CCc2ccc(C(=O)N3CCC4(CCN(Cc5c(C)nn(C)c5C)CC4)C3)cc21` (stereo not shown) [IND_CC-761, 2-Chloro-6-methyl-N-[6-[8-[(1,3,5-trimethyl-1H-pyrazol-4-yl)-methyl]-2,8-diazaspiro[4.5]decane-2-carbonyl]-2,3-dihydro-1H-inden-1-yl]-benzamide], the inhibition at 10 µM is 57%.

For the compound `CN(C1CCc2ccc(C(=O)N3CCC4(CC3)CCN(c3ccncc3)CC4)cc21)S(=O)(=O)c1ccccc1Cl` (stereo not shown) [IND_CC-325, 2-Chloro-N-methyl-N-[6-(9-pyridin-4-yl-3,9-diazaspiro[5.5]undecane-3-carbonyl)-2,3-dihydro-1H-inden-1-yl]-benzenesulfonic acid amide], the inhibition at 10 µM worked out at 102%.

For the compound `O=C(NC1CCc2ccc(C(=O)N3CCC4(CCN(Cc5ccc6ncccc6c5)CC4)C3)cc21)c1cc(Cl)ccc1F` (stereo not shown) [IND_CC-671, 5-Chloro-2-fluoro-N-[6-[8-(quinolin-6-yl-methyl)-2,8-diazaspiro[4.5]decane-2-carbonyl]-2,3-dihydro-1H-inden-1-yl]-benzamide], the inhibition at 10 µM stood at 80%.

Regarding `CC(C)S(=O)(=O)N1CCC2(CCN(C(=O)c3ccc4c(c3)C(NC(=O)c3ccccc3Cl)CC4)CC2)CC1` (stereo not shown) [IND_CC-613, 2-Chloro-N-[6-[9-(isopropylsulfonyl)-3,9-diazaspiro[5.5]undecane-3-carbonyl]-2,3-dihydro-1H-inden-1-yl]-benzamide], the inhibition at 10 µM came out at 102%.

As to `O=C(NC1CCc2ccc(C(=O)N3CCC4(CCN(Cc5c(F)cccc5F)CC4)CC3)cc21)c1cc(C(F)(F)F)ccc1Cl` (stereo not shown) [IND_CC-644, 2-Chloro-N-[6-[9-[(2,6-difluoro-phenyl)-methyl]-3,9-diazaspiro[5.5]undecane-3-carbonyl]-2,3-dihydro-1H-inden-1-yl]-5-(trifluoromethyl)-benzamide], the inhibition at 10 µM was 59%.

Regarding `Cn1cccc1CN1CCC2(CC1)CCN(C(=O)c1ccc3c(c1)C(NC(=O)c1c(F)cccc1Cl)CC3)CC2` (stereo not shown) [IND_CC-787, 2-Chloro-6-fluoro-N-[6-[9-[(1-methyl-1H-pyrrol-2-yl)-methyl]-3,9-diazaspiro[5.5]undecane-3-carbonyl]-2,3-dihydro-1H-inden-1-yl]-benzamide], the inhibition at 10 µM was 93%.

For the compound `O=C(NC1CCc2ccc(C(=O)N3CCC4(CCN(Cc5ccc(F)cc5F)CC4)C3)cc21)c1ccccc1Cl` (stereo not shown) [IND_CC-544, 2-Chloro-N-[6-[8-[(2,4-difluoro-phenyl)-methyl]-2,8-diazaspiro[4.5]decane-2-carbonyl]-2,3-dihydro-1H-inden-1-yl]-benzamide], the inhibition at 10 µM is 99%.

On to `O=C(NC1CCc2ccc(C(=O)N3CCC4(CCN(CC5CCCCC5)CC4)C3)cc21)c1cc(C(F)(F)F)ccc1Cl` (stereo not shown) [IND_CC-689, 2-Chloro-N-[6-[8-(cyclohexyl-methyl)-2,8-diazaspiro[4.5]decane-2-carbonyl]-2,3-dihydro-1H-inden-1-yl]-5-(trifluoromethyl)-benzamide], for which the inhibition at 10 µM was 55%.

Turning to `O=C(NCc1ccccc1)N1CCC2(CC1)CCN(C(=O)c1ccc3c(c1)C(N(C(=O)c1ccccc1Cl)C1CC1)CC3)C2` (stereo not shown) [IND_CC-716, N-Benzyl-2-[3-[(2-chloro-benzoyl)-cyclopropyl-amino]-2,3-dihydro-1H-indene-5-carbonyl]-2,8-diazaspiro[4.5]decane-8-carboxylic acid amide], the inhibition at 10 µM stood at 80%.

For the compound `O=C(c1ccc2c(c1)C(N(C(=O)c1ccccc1Cl)C1CC1)CC2)N1CCC2(CCN(C(=O)c3ccc(F)cc3Cl)CC2)C1` (stereo not shown) [IND_CC-605, 2-Chloro-N-[6-[8-(2-chloro-4-fluoro-benzoyl)-2,8-diazaspiro[4.5]decane-2-carbonyl]-2,3-dihydro-1H-inden-1-yl]-N-cyclopropyl-benzamide], the inhibition at 10 µM came out at 66%.

In the case of `O=C(Nc1c(Cl)cccc1Cl)N1CCC2(CC1)CCN(C(=O)c1ccc3c(c1)C(N(C(=O)c1ccccc1Cl)C1CC1)CC3)C2` (stereo not shown) [IND_CC-718, 2-[3-[(2-Chloro-benzoyl)-cyclopropyl-amino]-2,3-dihydro-1H-indene-5-carbonyl]-N-(2,6-dichloro-phenyl)-2,8-diazaspiro[4.5]decane-8-carboxylic acid amide], the inhibition at 10 µM was 52%.

Regarding `O=C(NC1CCc2ccc(C(=O)N3CCC4(CC3)CCN(c3ccncc3)CC4)cc21)C1CCCC1` (stereo not shown) [IND_CC-391, N-[6-(9-Pyridin-4-yl-3,9-diazaspiro[5.5]undecane-3-carbonyl)-2,3-dihydro-1H-inden-1-yl]-cyclopentanecarboxylic acid amide], the inhibition at 10 µM is 103%.

Turning to `CN(C1CCc2ccc(C(=O)N3CCC4(CC3)CCN(c3ccncc3)CC4)cc21)S(=O)(=O)c1ccc(C(F)(F)F)cc1Cl` (stereo not shown) [IND_CC-320, 2-Chloro-N-methyl-N-[6-(9-pyridin-4-yl-3,9-diazaspiro[5.5]undecane-3-carbonyl)-2,3-dihydro-1H-inden-1-yl]-4-(trifluoromethyl)-benzenesulfonic acid amide], the inhibition at 10 µM was 83%.

As to `Cc1c(CN2CCC3(CC2)CCN(C(=O)c2ccc4c(c2)C(NC(=O)c2ccccc2Cl)CC4)CC3)cnn1C` (stereo not shown) [IND_CC-531, 2-Chloro-N-[6-[9-[(1,5-dimethyl-1H-pyrazol-4-yl)-methyl]-3,9-diazaspiro[5.5]undecane-3-carbonyl]-2,3-dihydro-1H-inden-1-yl]-benzamide], the inhibition at 10 µM was 81%.

For the compound `O=C(NC1CCc2ccc(C(=O)N3CCC4(CCN(Cc5cc(F)ccc5F)CC4)C3)cc21)c1sccc1Cl` (stereo not shown) [IND_CC-547, 3-Chloro-N-[6-[8-[(2,5-difluoro-phenyl)-methyl]-2,8-diazaspiro[4.5]decane-2-carbonyl]-2,3-dihydro-1H-inden-1-yl]-thiophene-2-carboxylic acid amide], the inhibition at 10 µM stood at 71%.

Regarding `O=C(NC1CCc2ccc(C(=O)N3CCC4(CCN(C(=O)Nc5ccc(Cl)cc5Cl)CC4)CC3)cc21)c1ccccc1Cl` (stereo not shown) [IND_CC-710, 3-[3-[(2-Chloro-benzoyl)amino]-2,3-dihydro-1H-indene-5-carbonyl]-N-(2,4-dichlorophenyl)-3,9-diazaspiro[5.5]undecane-9-carboxylic acid amide], the inhibition at 10 µM came out at 90%.

Regarding `O=C(c1ccc2c(c1)C(N(C(=O)c1ccccc1Cl)C1CC1)CC2)N1CCC2(CCN(S(=O)(=O)c3ccc(F)cc3F)CC2)C1` (stereo not shown) [IND_CC-616, 2-Chloro-N-cyclopropyl-N-[6-[8-[(2,4-difluoro-phenyl)sulfonyl]-2,8-diazaspiro[4.5]decane-2-carbonyl]-2,3-dihydro-1H-inden-1-yl]-benzamide], the inhibition at 10 µM turned out to be 81%.

As for `O=C(Nc1cc(F)cc(F)c1)N1CCC2(CC1)CCN(C(=O)c1ccc3c(c1)C(N(C(=O)c1ccccc1Cl)C1CC1)CC3)C2` (stereo not shown) [IND_CC-720, 2-[3-[(2-Chloro-benzoyl)-cyclopropyl-amino]-2,3-dihydro-1H-indene-5-carbonyl]-N-(3,5-difluoro-phenyl)-2,8-diazaspiro[4.5]decane-8-carboxylic acid amide], the inhibition at 10 µM stood at 80%.

`CCn1cc(CN2CCC3(CC2)CCN(C(=O)c2ccc4c(c2)C(NC(=O)c2c(C)cccc2Cl)CC4)C3)c(C)n1` (stereo not shown) [IND_CC-762, 2-Chloro-N-[6-[8-[(1-ethyl-3-methyl-1H-pyrazol-4-yl)-methyl]-2,8-diazaspiro-[4.5]decane-2-carbonyl]-2,3-dihydro-1H-inden-1-yl]-6-methyl-benzamide]: the inhibition at 10 µM worked out at 55%.

On to `Cc1c(CN2CCC3(CC2)CCN(C(=O)c2ccc4c(c2)C(NC(=O)c2c(F)cccc2Cl)CC4)CC3)cnn1C` (stereo not shown) [IND_CC-798, 2-Chloro-N-[6-[9-[(1,5-dimethyl-1H-pyrazol-4-yl)-methyl]-3,9-diazaspiro-[5.5]undecane-3-carbonyl]-2,3-dihydro-1H-inden-1-yl]-6-fluoro-benzamide], for which the inhibition at 10 µM amounted to 71%.

`CN(C(=O)CCC1CCCC1)C1CCc2ccc(C(=O)N3CCC4(CC3)CCN(c3ccncc3)CC4)cc21` (stereo not shown) [IND_CC-412, 3-Cyclopentyl-N-methyl-N-[6-(9-pyridin-4-yl-3,9-diazaspiro[5.5]undecane-3-carbonyl)-2,3-dihydro-1H-inden-1-yl]-propionamide]: the inhibition at 10 µM was 99%.

As to `O=C(NC1CCc2ccc(C(=O)N3CCC4(CCN(CCCc5ccc(F)cc5)CC4)C3)cc21)c1c(F)cccc1Cl` (stereo not shown) [IND_CC-782, 2-Chloro-6-fluoro-N-[6-[8-[3-(4-fluorophenyl)-propyl]-2,8-diazaspiro[4.5]decane-2-carbonyl]-2,3-dihydro-1H-inden-1-yl]-benzamide], the inhibition at 10 µM was found to be 107%.
